Source: US4474790A, “Thioalkylamide of nicotinic acid 1-oxide, its salts, and pharmaceutical compositions” (SANOFI, priority 1981, dated 1984)

Columns and labels:
[1] = tested on: gastric histamine H2 receptors; test: antisecretory activity: antagonism to the hypersecretion provoked by histamine in the rat (Ghosh and Schild); format: in vivo; conditions: intravenous route, histamine infusion equivalent to 15 mcmol/kg/hour
Excerpt: The antagonistic activity of the products of the present invention towards the gastric histamine H2 receptors was confirmed in the test of the antisecretory activity based on the antagonism to the hypersecretion provoked by histamine in the rat according to the method of Ghosh and Schild (Brit. J. Pharmacol.1958; 13, 54). According to this test, a gastric acid hypersecretion is induced by intravenous infusion of a submaximal dose equivalent to 15 mcmol/kg/hour and the gastric secretion is measured by perfusion of a physiological solution at a constant speed in the stomach of the animal.

[2] = biological target: T1, cardiac histamine H2 receptor (Cavia porcellus, UniProt P47747); conditions: concentration inhibiting by 50% the increase in frequency induced by histamine; isolated right atrium of the Guinea pig; CM 57755 as dihydrochloride
T1 construct: isolated right atrium of the Guinea pig; from tissue; host or cells: isolated guinea pig right atrium
T1 sequence (P47747 whole entry): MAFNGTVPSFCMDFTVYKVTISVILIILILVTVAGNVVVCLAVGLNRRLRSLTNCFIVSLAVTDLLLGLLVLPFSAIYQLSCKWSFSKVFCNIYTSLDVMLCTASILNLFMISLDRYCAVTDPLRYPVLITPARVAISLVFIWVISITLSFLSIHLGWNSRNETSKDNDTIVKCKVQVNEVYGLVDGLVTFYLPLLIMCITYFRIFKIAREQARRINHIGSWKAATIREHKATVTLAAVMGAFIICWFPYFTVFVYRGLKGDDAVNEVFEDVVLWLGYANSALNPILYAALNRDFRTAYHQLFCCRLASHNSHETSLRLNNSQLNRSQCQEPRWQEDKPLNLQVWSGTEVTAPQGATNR

[3] = tested on: hypersecretion provoked by the dimaprit; test: antisecretory activity in the cat having a gastric fistula, dimaprit as hypersecretor (Emas et al.); format: in vivo; conditions: dimaprit 640 mcg/kg/hour
Experimental: The antisecretory activity of the products of the present invention was assessed in the cat having a gastric fistula according to the method of Emas et al.(Gastroenterology, 1969; 39, 771) using, as hypersecretor, dimaprit at the dose of 640 mcg/kg/hour.

[4] = biological target: T2, gastric histamine H2 receptor (Cavia porcellus, UniProt P47747); set-up: species or system guinea pig; conditions: for IC50: concentration inhibiting by 50% the secretion induced by histamine, isolated stomach mucous membrane of the Guinea pig, CM 57755 as dihydrochloride; for IC50 m/IC50 o: ratio gastric IC50 / cardiac IC50
T2 construct: isolated stomach mucous membrane of the Guinea pig; from tissue; host or cells: isolated guinea pig stomach mucous membrane
T2 sequence (P47747 whole entry): as above

[5] = acute toxicity (LD50) in the rat; conditions: in vivo, intravenous route
cardiac H2 receptors = conditions: treatment of ulcerous disease; Clinica Terapeutica, 1981, 96, 81-91; cited from earlier work

SMILES | dose inhibiting by 50% the hypersecretion provoked by histamine [1] [mg/kg] | IC50 [2] [µM] | duration of action after the suspension of the treatment [3] | activity compared with that of cimetidine ([3]; on molar basis) | antagonism of the hypersecretion provoked by the dimaprit ([3]; venous perfusion and intragastric route) | IC50 [4] [µM] | affinity for the gastric H2 receptors versus the cardiac H2 receptors ([4]; conclusion from the IC50 m/IC50 o ratio) | selectivity of antagonising gastric hypersecretion versus the positive chronotropic action provoked by histamine ([4]; conclusion from the IC50 m/IC50 o ratio, relative to the reference compounds) | IC50 m/IC50 o [4] | LD50 [5] [mg/kg] | secondary effects (block of the cardiac H2 receptors may be the cause) (cardiac H2 receptors)
CN(C)Cc1ccc(CSCCNC(=O)c2ccc[n+]([O-])c2)o1.Cl.Cl [CM 57755, N-[2-(5-dimethylaminomethylfuran-2-ylmethylthio)ethyl]-3-pyridinecarboxamide 1-oxide dihydrochloride] | 0.9 | 4.3 | long duration of action after the suspension of the treatment | comparable, on molar basis, to that of the cimetidine | antagonises in dose-dependent manner | 9.2 | greater affinity for the gastric H2 receptors than for the cardiac H2 receptors | capable of antagonising gastric hypersecretion more selectively than the positive chronotropic action provoked by histamine | 2.13 | 300 | 
CNC(=NC#N)NCCSCc1nc[nH]c1C [cimetidine, 2-cyano-1-methyl-3-[2[(5-methylimidazol-4-yl)methylthio]ethyl]guanidine, reference compound] |  |  | more transient |  |  |  |  |  |  |  | bradycardia and of asystolia
CNC(=C[N+](=O)[O-])NCCSCc1ccc(CN(C)C)o1 [ranitidine, reference compound] |  | 0.086 |  |  |  | 0.65 |  |  | 7.6 |  | 
